Results as given in patent US20050245738A1, “Stable bioavailable crystalline form or cefdinir and a process for the preparation thereof” (LUPIN LTD, priority 2004, published 2005).

Experiments:
[1] = Dissolution rate in 0.07 N Hydrochloric acid; assay type: physicochemical
[2] = Accelerated storage stability of cefdinir, Aluminum pouch, 40 ± 2° C., Rh 75 ± 5%; assay type: physicochemical
[3] = 0.07 N Hydrochloric acid, cited from earlier work
[4] = accelerated stability tests; cited from earlier work
[5] = After 30 days at 40 ± 2° C., Rh 75 ± 5%
[6] = After 60 days at 40 ± 2° C., Rh 75 ± 5%
[7] = After 180 days at 40 ± 2° C., Rh 75 ± 5%

IDR: Intrinsic Dissolution Rate [1] [mg/cm^2/min] | Dissolution Profile ([1]; 15 Mins) [mg/cm^2] | Dissolution Profile ([1]; 30 Mins) [mg/cm^2] | Dissolution Profile ([1]; 45 Mins) [mg/cm^2] | Dissolution Profile ([1]; 60 Mins) [mg/cm^2] | Dissolution Profile ([1]; 75 Mins) [mg/cm^2] | Dissolution Profile ([1]; 90 Mins) [mg/cm^2] | Dissolution Profile ([1]; 105 Mins) [mg/cm^2] | Dissolution Profile ([1]; 120 Mins) [mg/cm^2] | SMILES | further results
0.1831 | 4.15 | 8.26 | 10.31 | 14.66 | 16.29 | 19.47 | 22.17 | 23.01 | C=CC1=C(C(=O)O)N2C(=O)[C@@H](NC(=O)/C(=N\O)c3csc(N)n3)[C@H]2SC1 [(Z)-7-[2-(2-amino-4-thiazolyl)-2-hydroxyiminoacetamido]-3-vinyl-3-cephem-4-carboxylic acid] | dissolution rate compared with reference “Crystal A” and material of U.S. Application No. 2003/0204082 A [1]: superior; thermal stability ([2]; 40° C. (75% Rh)): excellent thermal stability; Assay by HPLC (% on Dry Basis) [2, 5]: 97.92 % on Dry Basis; Water Content (%) [2, 5]: 7.46%; pH (1% Aqueous suspension) [2, 5]: 3.46; Assay by HPLC (% on Dry Basis) [2, 6]: 97.38 % on Dry Basis; Water Content (%) [2, 6]: 7.27%; pH (1% Aqueous suspension) [2, 6]: 3.45; Assay by HPLC (% on Dry Basis) [2, 7]: 96.65 % on Dry Basis; Water Content (%) [2, 7]: 7.60%; pH (1% Aqueous suspension) [2, 7]: 3.55; Assay by HPLC (% on Dry Basis) ([2]; Initial): 98.37 % on Dry Basis; Water Content (%) ([2]; Initial): 7.05%; pH (1% Aqueous suspension) ([2]; Initial): 3.40
0.1392 | 4.59 | 6.01 | 8.70 | 10.42 | 12.23 | 14.94 | 16.79 | 19.02 | C=CC1=C(C(=O)O)N2C(=O)[C@@H](NC(=O)/C(=N\O)c3csc(N)n3)[C@H]2SC1 [Cefdinir Prepared as per the Method of Dobfar's US Applicati] [reference compound] | solubility compared with reference “Crystal A” ([3]; after the first hour): more soluble; dissolution rate compared with reference “Crystal A” ([3]; initially): initially slower; stability compared with reference “Crystal A” [4]: at least equal to that of the reference “Crystal A”
